{"source": "paper PMC8910920", "about": "(International Journal of Molecular Sciences, 2022)", "key": {"DRG sensory neurons": {"test_system": "DRG sensory neurons", "experiment": "Current-clamp, membrane resting potential of DRG sensory neurons", "type": "cell-based, rat", "settings": "10 μM", "experimental": "In order to test if compound RGM8-51 could affect the membrane resting potential (MRP) of DRG sensory neurons, we also measured MRP of sensory neurons in the current-clamp mode of patch-clamp.\nChanges in membrane potential were studied in neonatal DRGs isolated from 3–5 days-old Wistar rats. After isolation, DRGs were digested first using collagenase type IA (0.25% w/v) in DMEM GlutaMax with penicillin/streptomycin (P/S) solution (1% v/v) for 1 h (37 °C, 5% CO2, ThermoScientific incubator) and secondly by mechanical dissociation. Single cell suspension was passed through a […] cell strainer and washed with DMEM GlutaMax with FBS (10%v/v) and P/S solution (1% v/v). […]\nFor current-clamp recordings from rat DRG neurons the intracellular pipette solution contained (in mM): 4 NaCl, 126 K gluconate, 0.02 CaCl2, 1 MgSO4, 5 HEPES, 15 glucose, 3 ATP, 0.1 GTP and 5 EGTA, pH 7.2 with KOH and the extracellular solution contained (in mM): 140 NaCl, 4 KCl, 2 CaCl2, 2 MgCl2, 10 HEPES, 5 glucose and 20 mannitol, pH 7.4 with NaOH. The membrane potential was measured in the absence and the presence of compound RGM8-51 at 10 μM in a time interval of 1 min.\nData analysis: For the whole-cell patch-clamp experiments, results are expressed as the percentage of remaining activation of the TRPM8 channel. […] All data are expressed as the mean ± standard error of the mean (SEM) (n = 5–8). […]"}, "hCB2": {"target": "T1, hCB2 (Homo sapiens, UniProt P34972)", "T1 construct": "host or cells: CHO", "T1 sequence (P34972 whole entry)": "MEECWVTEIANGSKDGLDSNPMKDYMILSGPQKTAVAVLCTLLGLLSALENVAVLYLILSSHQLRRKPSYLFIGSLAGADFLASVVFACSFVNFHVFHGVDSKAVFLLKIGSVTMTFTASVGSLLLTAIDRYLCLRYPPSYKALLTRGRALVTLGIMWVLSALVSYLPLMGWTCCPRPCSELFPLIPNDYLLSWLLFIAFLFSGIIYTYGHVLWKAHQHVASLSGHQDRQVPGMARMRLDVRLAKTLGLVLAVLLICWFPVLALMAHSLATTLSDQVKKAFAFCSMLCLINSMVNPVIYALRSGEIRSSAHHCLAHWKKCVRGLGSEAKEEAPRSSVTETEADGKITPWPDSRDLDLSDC", "experiment": "Radioligand binding assay, CHO cells, hCB2", "experimental": "To define whether β–lactam derivative RGM8-51 could bind to CGRPR, CB2 and M3 receptors, in vitro binding assays were performed, using CHO cell lines transfected with these receptors. The degree of binding was determined by using specific radioligands for each receptor (Table 2, footnote).\nThese studies were subcontracted to Eurofins-CEREP or Eurofins-PANLABS. Briefly, agonists and antagonist assays were performed in cell cultures overexpressing the corresponding channel (CHO: TRPV1 and TRPA1; HEK293: TRPV3 and ASIC3). In vitro pharmacology, cellular channel functional assays: the compound was prepared in assay buffer to the final concentration, 10 μM. […] The agonist assay was conducted on fluorimeter instruments where the test compound, vehicle controls, and reference agonist were added to the assay plate after a fluorescence baseline was established. […] For the antagonist assay, the compound was pre-incubated for five minutes at room temperature, and then challenged with the EC80 concentration of the reference agonist after establishment of a fluorescence baseline. […] Binding assay results are expressed as a percent of control specific binding. […] Aqueous solubility (μM) was determined by comparing the peak area of the principal peak in a calibration standard (200 μM) containing organic solvent (methanol/water, 60/40, v/v) with the peak area of the corresponding peak in a buffer sample. […]"}}, "data": [{"compound": "C[C@@H]1C(=O)N(C[C@H](Cc2ccccc2)N(Cc2ccccc2)Cc2ccccc2)[C@]1(Cc1ccccc1)C(=O)OC(C)(C)C", "note": "[RGM8-51, 4(S)-Benzyl-3S-methyl-4-(tert-butoxy)carbonyl-1-[(2′S-dibenzylamino-3′-phenyl)prop-1′-yl]-2-oxoazetidine]", "values": [{"measurement": "effect on membrane resting potential (MRP)", "setting": "DRG sensory neurons", "value": "did not alter the MRP"}, {"measurement": "Binding hCB2 (%), inhibition of specific binding", "setting": "hCB2; 10 μM, radioligand [3H]WIN 55212-2", "value": "did not show significant affinity"}, {"measurement": "inhibition at 10 µM", "setting": "hCB2; radioligand [3H]WIN 55212-2, read-out: Binding hCB2 (%), inhibition of specific binding", "value": "7.3 ± 0.3", "unit": "%"}]}]}
